Results from patent publication US9244073B2, “Assays for detecting enzymatic activity” (Wellstat Diagnostics, LLC, priority 2011, dated 2016).

Assays:
FXa [1] = assay: Detecting FXa activity with biotin- and TAG Plus-conjugated substrate (ECL, loss of signal on cleavage); assay type: biochemical
Text: FXa activity can be measured through the use of peptides that include a FXa recognition sequence, a biotin at one terminus of the peptide and a BV-TAG Plus at the other terminus. In this embodiment, FXa recognizes and specifically cleaves the peptide between the arginine amino acid and the next amino acid toward the carboxy terminus, e.g., between arginine and glycine in peptide probe sequences I and II below. The cleavage by FXa results in the separation of biotin from the BV-TAG Plus. When the biotin is captured with streptavidin coated microparticles (Dynabeads M280-SA, Invitrogen, Cat: 112-06D), this loss of BV-TAG Plus can be measured quantitatively by an ECL instrument such as the M-SERIES® M1MR Analyzer (BioVeris Corporation, Gaithersburg, Md.).
A FXa activity calibrator curve was set up in a 96-well U bottom microtiter plate containing a serial dilution of FXa in an assay buffer [20 mM Tris-HCl (pH 7.2), 100 mM NaCl, 0.5% BSA and 6.0 mM CaCl2], with either peptide probe sequence I or II and M280-SA beads (Dynabeads M280-SA, Invitrogen, Cat: 112-06D). To each well was added 50 μL of 2-fold serial dilutions of FXa from 5000, 2500, 1250, 625, 313, 156 and 78.1 ng/mL and 50 μL of peptide probe (sequence I or II) at 10.0 ng/mL. The plate was incubated for 50 minutes on a MicroMix 5 shaker (Siemens) at room temperature and then 20 μL of 500 μg/mL M280-SA beads were added for an additional 10-minute incubation. The beads were washed once in 150 μL of a PBS-based buffer solution containing 1.8 mM KH2PO4, 10 mM Na2HPO4, 120 mM NaCl, 2.7 mM KCl, 0.033% Tween20 and 0.10% KATHON® CG/ICP II (Cat: 48178-U. Sigma, St. Louis, Mo.) and recovered by attaching a plate magnet to the 96-well plate (LIFESEP™ 96F, Dexter Magnetic Technologies Inc., Elk Grove Village, Ill. 60007). Beads were resuspended in 150 μL of the same PBS-based buffer and read in a M1MR Analyzer (Bioveris).

FXa [2] = assay: Detecting FXa activity by capturing the TAG-labeled neoepitope with anti-FLAG M1 beads (ECL); assay type: biochemical
Method: A FXa activity calibrator curve was set up in a 96-well U bottom microtiter plate containing 50 μL of a 3-fold serial dilution of FXa at 1000, 333, 111, 37.0, 12.3, 4.12 and 1.37 ng/mL in the assay buffer (Example 4) and 25 μL of NH2-IEGRDYKDDDDKGS-TAG (SEQ ID NO:5) (1.25, 2.5 or 5.0 μg/mL) in a hot plate at 37° C. for 10 minutes. After the incubation, 50 μL of Bi-anti-FLAG®-M1 antibody prebound beads (200 μg/mL concentration at the ratio of 10 μg of antibody per 1.0 mg of beads) were added, followed by an incubation for another 20 minutes at 37° C. After the incubation, the beads were washed once in 150 μL of the PBS-based buffer solution (Example 3) and were resuspended in 150 μL of the PBS-based buffer before beads were read in a M1MR analyzer (BioVeris).

[3] = substrate 1.25 μg/mL, FXa 1.37 ng/mL
[4] = substrate 1.25 μg/mL, FXa 4.12 ng/mL
[5] = substrate 1.25 μg/mL, FXa 12.3 ng/mL
[6] = substrate 1.25 μg/mL, FXa 37.0 ng/mL
[7] = substrate 1.25 μg/mL, FXa 111 ng/mL
[8] = substrate 1.25 μg/mL, FXa 333 ng/mL
[9] = substrate 1.25 μg/mL, FXa 1000 ng/mL
[10] = substrate 2.5 μg/mL, FXa 1.37 ng/mL
[11] = substrate 2.5 μg/mL, FXa 4.12 ng/mL
[12] = substrate 2.5 μg/mL, FXa 12.3 ng/mL
[13] = substrate 2.5 μg/mL, FXa 37.0 ng/mL
[14] = substrate 2.5 μg/mL, FXa 111 ng/mL
[15] = substrate 2.5 μg/mL, FXa 333 ng/mL
[16] = substrate 2.5 μg/mL, FXa 1000 ng/mL
[17] = substrate 5.0 μg/mL, FXa 1.37 ng/mL
[18] = substrate 5.0 μg/mL, FXa 4.12 ng/mL
[19] = substrate 5.0 μg/mL, FXa 12.3 ng/mL
[20] = substrate 5.0 μg/mL, FXa 37.0 ng/mL
[21] = substrate 5.0 μg/mL, FXa 111 ng/mL
[22] = substrate 5.0 μg/mL, FXa 333 ng/mL
[23] = substrate 5.0 μg/mL, FXa 1000 ng/mL

FXa, sequence (P00742 41-179 limits assumed): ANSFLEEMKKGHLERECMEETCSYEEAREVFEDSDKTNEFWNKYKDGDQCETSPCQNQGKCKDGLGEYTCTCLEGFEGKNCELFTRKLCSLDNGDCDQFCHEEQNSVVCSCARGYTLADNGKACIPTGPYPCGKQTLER
FXa, sequence (P00742 235-488 limits assumed): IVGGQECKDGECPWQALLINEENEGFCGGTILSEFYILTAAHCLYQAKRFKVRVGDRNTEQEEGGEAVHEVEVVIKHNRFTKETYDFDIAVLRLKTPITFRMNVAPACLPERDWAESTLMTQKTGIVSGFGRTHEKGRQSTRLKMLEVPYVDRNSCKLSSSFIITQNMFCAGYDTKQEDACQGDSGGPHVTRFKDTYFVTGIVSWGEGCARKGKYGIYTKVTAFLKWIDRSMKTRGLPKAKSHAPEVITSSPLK

Question: What does the source list for “Biotin-(mPeg2)IEGRGS (KBv TAG Plus) amide [Peptide Probe Sequence II]”?
Answer: % Signal Decrease (FXa [1]; FXa 78.1 ng/mL): 0%; Mean Signal (FXa [1]; FXa 78.1 ng/mL): 339795; % Signal Decrease (FXa [1]; FXa 156 ng/mL): −4%; Mean Signal (FXa [1]; FXa 156 ng/mL): 325928; % Signal Decrease (FXa [1]; FXa 313 ng/mL): −11%; Mean Signal (FXa [1]; FXa 313 ng/mL): 302632; % Signal Decrease (FXa [1]; FXa 625 ng/mL): −10%; Mean Signal (FXa [1]; FXa 625 ng/mL): 305778; % Signal Decrease (FXa [1]; FXa 1250 ng/mL): −24%; Mean Signal (FXa [1]; FXa 1250 ng/mL): 256745; % Signal Decrease (FXa [1]; FXa 2500 ng/mL): −39%; Mean Signal (FXa [1]; FXa 2500 ng/mL): 208649; % Signal Decrease (FXa [1]; FXa 5000 ng/mL): −66%; Mean Signal (FXa [1]; FXa 5000 ng/mL): 116839

Question: Which results are given for “Biotin-IEGRGS (KBv TAG Plus) amide [Peptide Probe Sequence I]”?
Answer: % Signal Decrease (FXa [1]; FXa 78.1 ng/mL): −3%; Mean Signal (FXa [1]; FXa 78.1 ng/mL): 413958; % Signal Decrease (FXa [1]; FXa 156 ng/mL): −3%; Mean Signal (FXa [1]; FXa 156 ng/mL): 413232; % Signal Decrease (FXa [1]; FXa 313 ng/mL): −9%; Mean Signal (FXa [1]; FXa 313 ng/mL): 388137; % Signal Decrease (FXa [1]; FXa 625 ng/mL): −15%; Mean Signal (FXa [1]; FXa 625 ng/mL): 363185; % Signal Decrease (FXa [1]; FXa 1250 ng/mL): −31%; Mean Signal (FXa [1]; FXa 1250 ng/mL): 296182; % Signal Decrease (FXa [1]; FXa 2500 ng/mL): −53%; Mean Signal (FXa [1]; FXa 2500 ng/mL): 202007; % Signal Decrease (FXa [1]; FXa 5000 ng/mL): −76%; Mean Signal (FXa [1]; FXa 5000 ng/mL): 103604

Question: How did the “Mean Signal” value (FXa [2]; [3]) turn out when “NH2-IEGRDYKDDDDKGS-TAG (TAG label; includes cleavage recognition site and binding site for anti-FLAG antibody)” was run?
Answer: 1140

Question: What about the Signal/Background (FXa [2]; [3]) of the same substance?
Answer: 1.9

Question: What about the “Mean Signal” value (FXa [2]; [4]) of the same substance?
Answer: 2174

Question: What about the Signal/Background (FXa [2]; [4]) of the same substance?
Answer: 3.7

Question: And the “Mean Signal” value (FXa [2]; [5])?
Answer: 4437

Question: And the Signal/Background (FXa [2]; [5])?
Answer: 7.5

Question: What about the “Mean Signal” value (FXa [2]; [6]) of the same substance?
Answer: 10667

Question: And the Signal/Background (FXa [2]; [6])?
Answer: 18

Question: And the “Mean Signal” value (FXa [2]; [7])?
Answer: 20521

Question: What about the Signal/Background (FXa [2]; [7]) of the same substance?
Answer: 35

Question: What about the “Mean Signal” value (FXa [2]; [8]) of the same substance?
Answer: 52797

Question: What about the Signal/Background (FXa [2]; [8]) of the same substance?
Answer: 89

Question: What about the “Mean Signal” value (FXa [2]; [9]) of the same substance?
Answer: 69011

Question: What about the Signal/Background (FXa [2]; [9]) of the same substance?
Answer: 116

Question: And the “Mean Signal” value (FXa [2]; [10])?
Answer: 1393

Question: And the Signal/Background (FXa [2]; [10])?
Answer: 1.6

Question: And the “Mean Signal” value (FXa [2]; [11])?
Answer: 3828

Question: What about the Signal/Background (FXa [2]; [11]) of the same substance?
Answer: 4.5

Question: And the “Mean Signal” value (FXa [2]; [12])?
Answer: 7696

Question: What about the Signal/Background (FXa [2]; [12]) of the same substance?
Answer: 9.0

Question: What about the “Mean Signal” value (FXa [2]; [13]) of the same substance?
Answer: 20144

Question: What about the Signal/Background (FXa [2]; [13]) of the same substance?
Answer: 24

Question: And the “Mean Signal” value (FXa [2]; [14])?
Answer: 41788

Question: What about the Signal/Background (FXa [2]; [14]) of the same substance?
Answer: 49

Question: And the “Mean Signal” value (FXa [2]; [15])?
Answer: 62747

Question: And the Signal/Background (FXa [2]; [15])?
Answer: 73

Question: What about the “Mean Signal” value (FXa [2]; [16]) of the same substance?
Answer: 78193

Question: And the Signal/Background (FXa [2]; [16])?
Answer: 91

Question: And the “Mean Signal” value (FXa [2]; [17])?
Answer: 3725

Question: And the Signal/Background (FXa [2]; [17])?
Answer: 2.1

Question: And the “Mean Signal” value (FXa [2]; [18])?
Answer: 6363

Question: What about the Signal/Background (FXa [2]; [18]) of the same substance?
Answer: 3.6

Question: What about the “Mean Signal” value (FXa [2]; [19]) of the same substance?
Answer: 14866

Question: And the Signal/Background (FXa [2]; [19])?
Answer: 8.4

Question: What about the “Mean Signal” value (FXa [2]; [20]) of the same substance?
Answer: 32274

Question: What about the Signal/Background (FXa [2]; [20]) of the same substance?
Answer: 18

Question: What about the “Mean Signal” value (FXa [2]; [21]) of the same substance?
Answer: 62147

Question: And the Signal/Background (FXa [2]; [21])?
Answer: 35

Question: What about the “Mean Signal” value (FXa [2]; [22]) of the same substance?
Answer: 78710

Question: What about the Signal/Background (FXa [2]; [22]) of the same substance?
Answer: 45

Question: And the “Mean Signal” value (FXa [2]; [23])?
Answer: 86900

Question: What about the Signal/Background (FXa [2]; [23]) of the same substance?
Answer: 49
